# From patent US8986696B2, “Trans-capsular administration of p38 map kinase inhibitors into orthopedic joints” (DePuy Mitek, Inc., priority 2007, dated 2015)
# Where two headings read alike, the source gives them in different places.
# Columns and labels:
# chondrocytes = format: cell-based
# Procedure, shortened: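 Bovine chondrocyte pellets (calf articular cartilage, or alginate-recovered chondrocyte tissue punches) pretreated with compounds 1 h at 37 °C, then incubated 3-5 days with or without 10 ng/ml IL-1β, DMSO ≤1%. Media LDH activity measured colorimetrically via lactate-to-pyruvate conversion reducing INT tetrazolium to formazan.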
# [1] = system: rabbit anterior cruciate ligament transection (ACLT) model of osteoarthritis; experiment: ACLT model, p38 MAP kinase inhibitors (Example VII); format: in vivo; parameters: key to Clinical Scoring - Total Score, Mean / Clinical Scoring - Trochlear Groove Effects, Mean / Clinical Scoring - All Tibial Plateau Effects, Mean / Clinical Scoring - All Cartilage Effects, Mean / Clinical Scoring - All Condylar Effects, Mean: gross joint damage score; higher = more damage; details: for All Condylar Effects: at the low dose; for Total Score / All Cartilage Effects: both doses; for All Cartilage Effects: compared to the non-injected control group; for lateral femoral condyle surface erosion: high and low dose
# Method: New Zealand white rabbits (male, six to eight pounds) were anesthetized with ketamine (17 mg/kg) and xylazine (2.5 mg/kg). Supplementation was given during surgery, if needed, with an additional intramuscular injection of ketamine (35 mg/kg) and xylazine (5 mg/kg). The animals were given buprenorphine (0.01-0.05 mg/kg) for analgesia via a subcutaneous injection. The buprenorphine was administered every twelve hours for seventy-two hours. After induction of anesthesia, the right leg was clipped free of hair using electric animal clippers. The area around the site of surgery was scrubbed with chlorhexidine diacetate, rinsed with alcohol, dried, and painted with an aqueous iodophor solution of 1% available iodine and surgery was prepared using aseptic technique. In the right limb of each animal, the anterior cruciate ligament (ACL) was transected. A medial parapatellar incision was made and the patella was dislocated. The knee was flexed and the ACL visualized. A scalpel blade was positioned behind the ACL and brought anteriorly, thereby cutting the ACL while protecting the posterior cruciate ligament. The patella was returned to the normal anatomic position. The wound was closed in layers.
# Following surgery, the animals were left untreated for six weeks. After six weeks, a series of five injections of the test compound were injected intra-articularly once weekly.
# The animals were euthanized six weeks after initiation with an intravenous injection of pentobarbital (60 mg/kg). […] Immediately following euthanasia, gross observations of the knee joints were made and any abnormality was recorded. The joints were analyzed for disease state in the trochlear groove, the femoral condyles and the tibial plateau. Pathological assessments were performed on the sectioned tissue. Condylar structure, cellularity, presence of GAG and presence of cartilage were evaluated.
# Sterile formulations of the test compounds were prepared by gamma irradiating (15 kGy) them on dry ice. […] All formulations were prepared in an aseptic manner by dispersing the drug into ARTHREASE®. […] The drug was delivered in a volume of 160 μL at a concentration of […]. The low dose was made by diluting with ARTHREASE® to the final concentration.
# Ninety-six (96) rabbits underwent ACLT on the right knee (n=ten per group) according to the ACLT model. Anesthesia, analgesia, surgical preparation, surgery, intra-articular injections, and euthanasia were conducted according to the ACLT model.
# At the time of sacrifice, the following parameters were evaluated grossly (the scale follows in parenthesis):
# Each parameter was given a score. The combination of all parameters gave a Total Score. A higher score indicates more damage to the joint. […] Individual results for each parameter assessed were tabulated. Data for the individual scores is not shown.
# [2] = system: injured cartilage explants; format: cell-based
# Source text: The device comprises a vertical rail that guides a sliding weight from 0.1 kg to 3 kg directly onto a force transducer which is situated at the bottom of the device. A sphere-shaped 2 mm indenter resting on a specimen is located at the bottom of the vertical rail. The indenter is held by a stop screw. The specimen is rigidly attached to a tissue holder underneath the indenter, to avoid side movements, the specimen is rigidly attached to the tissue holder. In this manner, the force transducer transduces a force indirectly onto the specimen. Adjusting the weight of a mass and height from which the mass drops varies the magnitude of the intended impact. For example, a weight mass (e.g., […]) held by a weight holder can be released from a height of e.g., 36 cm and dropped onto the force transducer.
# p38α MAP kinase = p38α MAP kinase (Homo sapiens, UniProt Q16539); experiment: p38α MAP kinase enzyme inhibition; format: biochemical
# COX1 = COX1 (Homo sapiens, UniProt P23219); experiment: COX1 inhibition; format: biochemical
# [3] = within the tested concentrations
# Chain of COX1 (P23219 24-599): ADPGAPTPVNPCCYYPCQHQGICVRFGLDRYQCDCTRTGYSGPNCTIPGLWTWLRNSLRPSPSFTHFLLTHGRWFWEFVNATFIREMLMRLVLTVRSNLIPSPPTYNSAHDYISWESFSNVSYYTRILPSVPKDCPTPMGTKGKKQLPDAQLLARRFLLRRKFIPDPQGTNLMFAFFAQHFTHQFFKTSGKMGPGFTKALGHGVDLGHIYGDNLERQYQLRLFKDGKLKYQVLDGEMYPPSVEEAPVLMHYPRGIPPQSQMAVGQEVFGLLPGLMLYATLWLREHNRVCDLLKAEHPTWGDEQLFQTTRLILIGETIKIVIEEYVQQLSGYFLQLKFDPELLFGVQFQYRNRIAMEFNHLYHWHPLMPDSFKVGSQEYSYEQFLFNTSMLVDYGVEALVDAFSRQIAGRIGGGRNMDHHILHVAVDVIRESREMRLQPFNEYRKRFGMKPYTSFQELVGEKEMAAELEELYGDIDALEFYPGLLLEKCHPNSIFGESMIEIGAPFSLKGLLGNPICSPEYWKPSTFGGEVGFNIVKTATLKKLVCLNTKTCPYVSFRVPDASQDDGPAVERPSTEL
# Chain of p38α MAP kinase (Q16539 whole entry): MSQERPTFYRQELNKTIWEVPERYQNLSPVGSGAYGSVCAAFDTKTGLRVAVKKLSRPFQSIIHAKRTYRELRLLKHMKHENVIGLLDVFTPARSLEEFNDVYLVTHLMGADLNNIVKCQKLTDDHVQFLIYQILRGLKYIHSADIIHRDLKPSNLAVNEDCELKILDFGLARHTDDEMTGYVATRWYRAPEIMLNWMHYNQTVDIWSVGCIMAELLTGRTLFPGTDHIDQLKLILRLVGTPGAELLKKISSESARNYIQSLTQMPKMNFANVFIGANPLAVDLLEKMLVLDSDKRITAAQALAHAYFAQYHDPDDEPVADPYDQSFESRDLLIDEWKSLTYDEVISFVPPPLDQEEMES
Structure (SMILES),"cytotoxicity to chondrocytes (LDH, words) (chondrocytes; [3])",All Condylar Effects [1],Total Score [1],All Cartilage Effects [1],lateral femoral condyle surface erosion [1],"Clinical Scoring - All Cartilage Effects, Mean ([1]; high dose)","Clinical Scoring - All Condylar Effects, Mean ([1]; high dose)","Clinical Scoring - All Tibial Plateau Effects, Mean ([1]; high dose)","Clinical Scoring - Total Score, Mean ([1]; high dose)","Clinical Scoring - Trochlear Groove Effects, Mean ([1]; high dose)","Clinical Scoring - All Cartilage Effects, Mean ([1]; low dose)","Clinical Scoring - All Condylar Effects, Mean ([1]; low dose)","Clinical Scoring - All Tibial Plateau Effects, Mean ([1]; low dose)","Clinical Scoring - Total Score, Mean ([1]; low dose)","Clinical Scoring - Trochlear Groove Effects, Mean ([1]; low dose)","cytotoxicity (LDH, words) [2]",IC50 (p38α MAP kinase) [µM],IC50 (COX1) [µM],"cytotoxicity to chondrocytes (LDH, words) (chondrocytes)"
C[C@H](Nc1nccc(-c2c(-c3ccc(F)cc3)nc3nc(N)ccn23)n1)c1ccccc1 [JNJ 7583979 (RWJ 351958)],little cytoxicity,–,–,–,–,–,–,–,–,–,–,–,–,–,–,–,–,–,–
"OCCC#Cc1nc(-c2ccc(F)cc2)c(-c2ccncc2)n1CCCc1ccccc1 [JNJ 3026582 (RWJ 67657), 4-[4-(4-fluorophenyl)-1-(3-phenylpropyl)-5-(4-pyridinyl)-1H-imidazol-2-yl]-3-butyn-1-ol]",little cytoxicity,no effect,Neither JNJ 3026582 (RWJ 67657) nor SCIO-282 (SD 282) had an effect,no efficacy,no effect,9.75,6.25,2.25,16.58,7.92,7.58,4.71,1.63,14.17,7.75,–,–,–,–
"CC(=O)Oc1cccc2c1C(=O)c1c(OC(C)=O)cc(C(=O)O)cc1C2=O [Diacerein, reference compound]",–,–,–,–,–,–,–,–,–,–,–,–,–,–,–,tolerant,–,–,–
CC(=O)N1CCN(c2c(-c3ccncc3)c(-c3ccc(F)cc3)c(C#N)n2C)CC1 [JNJ 17089540 (RWJ 669307)],–,decrease in overall clinical score,trended downward,reduction in scores,efficacious in reducing the clinical score,6.21,3.75,2.38,12.46,6.25,5,2.68,1.95,10.41,5.55,–,2,> 10,little cytoxicity
